Columns and labels:
Assay in all cases: Minimum Inhibitory Concentration (MIC) test, growth inhibition in 96 well plates via optical density
Assay type in all cases: cell-based
[1] = tested on: Candida albicans; conditions: lowest concentration with complete growth inhibition, C. albicans; for MIC: Candida albicans, read-out: MIC in ppm Candida albicans
Procedure: (§1) The Minimum Inhibitory Concentration (MIC) test is a test on growth inhibition. The estimation of MICs is executed in 96 well plates. Through the comparison of bacterial growth with positive and negative controls via optical density (OD), different concentrations of given test substances are evaluated.
(§2) Bacteria were cultivated under adjusted conditions based on information of the German Collection of Microorganisms and Cell Cultures (DSMZ) and stored in 10% or 50% glycerol prior to use. Afterwards, the following method was applied: Growth medium (according to microorganism) was added to each well of the microplate. Then, test-substances solved in DMSO, and strain specific benchmarks were added. Additionally, […] (water controls only with medium) and solvent controls (DMSO controls only with medium) were performed. Finally, the microorganisms were added in a concentration of 1 to 6×10^6 CFU/ml (CFU=colony forming units). The incubation of the microplates was carried out at appropriate conditions.
(§3) According to the resulting growth, substance concentrations are labelled either as inhibiting or not and MIC is defined as the lowest concentration where a complete growth inhibition is visible. Experiments at concentration limits (highest concentration labelled as growth and lowest concentration labelled as inhibiting) are performed at least twice.
(§4) Tested concentrations were adjusted to performance of test substance, but in general: 5,000 ppm steps between 50,000 ppm and 10,000 ppm, and 2500 ppm steps below 10,000 ppm, finishing with 1000 ppm. To enhance resolution of the approach, additional intermediate steps were included in individual cases. […] For ethylhexylglycerin and 1,2-pentanediol, pure substance without DMSO was tested.
(§5) To verify that the tested combinations act synergistically against microorganisms, corresponding experiments were conducted with Staphylococcus aureus, Candida albicans, Aspergillus brasiliensis, Pseudomonas aeruginosa and Escherichia coli. The synergistic activities of MAA-1 and different antimicrobial compounds in a mixture of 50% and 50% were determined by measuring the MIC of the mixture.
(§6) In order to calculate the synergy index with MIC values, the Kull equation was used as follows:
(§7) [formula] • wherein • SI is the Synergy Index according to Kull • MICA is the MIC value for Substance A • MICB is the MIC value for Substance B • MICmixture is the MIC value for the mixture of substances A and B • PA is the proportion of the substance A in the mixture • PB is the proportion of the substance B in the mixture
(§8) A Synergy Index (SI) with a value lower than 1 indicates a synergistic effect of the mixture that has been tested. Values higher than 1 indicate the absence of a synergistic effect.
(§9) For mixtures for which no MIC value has been determined, the calculation of an SI is not applicable (marked as n.a. in the following tables).

[2] = tested on: Staphylococcus aureus; conditions: lowest concentration with complete growth inhibition, S. aureus; for MIC: Staphylococcus aureus, read-out: MIC in ppm Staphylococcus aureus
Procedure: as §1, §2, §3, §4, §5, §6, §7, §8, §9

[3] = tested on: Aspergillus brasiliensis; conditions: lowest concentration with complete growth inhibition, A. brasiliensis; for MIC: Aspergillus brasiliensis, read-out: MIC in ppm Aspergillus brasiliensis
Procedure: as §1, §2, §3, §4, §5, §6, §7, §8, §9

[4] = tested on: Escherichia coli; conditions: lowest concentration with complete growth inhibition, E. coli; for MIC: Escherichia coli, read-out: MIC in ppm Escherichia coli
Procedure: as §1, §2, §3, §4, §5, §6, §7, §8, §9

[5] = tested on: Pseudomonas aeruginosa; conditions: lowest concentration with complete growth inhibition, P. aeruginosa; for MIC: Pseudomonas aeruginosa, read-out: MIC in ppm Pseudomonas aeruginosa
Procedure: as §1, §2, §3, §4, §5, §6, §7, §8, §9

CCCC(O)CO (stereo not drawn) [1,2-Pentanediol]
MIC [1]: 12.5 mg/mL
MIC [2]: 35 mg/mL
MIC [3]: 17.5 mg/mL
MIC [4]: 15 mg/mL
MIC [5]: 30 mg/mL

CC(=O)c1ccc(O)cc1 [4-Hydroxy-acetophenone, 4-Hydroxyacetophenone]
MIC in ppm Candida albicans [1]: 6,000 ppm
MIC in ppm Staphylococcus aureus [2]: 5,000 ppm
MIC in ppm Aspergillus brasiliensis [3]: 2,500 ppm
MIC in ppm Escherichia coli [4]: 2,500 ppm
MIC in ppm Pseudomonas aeruginosa [5]: 4,000 ppm

CCCCC(CC)COCC(O)CO (stereo not drawn) [Ethylhexylglycerin]
MIC in ppm Candida albicans [1]: 1,000 ppm
MIC in ppm Staphylococcus aureus [2]: 1,000 ppm
MIC in ppm Aspergillus brasiliensis [3]: 1,000 ppm
MIC in ppm Escherichia coli [4]: 2,500 ppm
MIC in ppm Pseudomonas aeruginosa [5]: 50,000 ppm

CCOC(=O)CNC1=C/C(=N/c2ccccc2)CC(C)(C)C1 [MAA-1]
MIC [1]: 7.5 mg/mL
MIC [2]: 2.5 mg/mL
MIC [3]: 20 mg/mL
MIC [4]: 2.5 mg/mL
MIC [5]: > 25 mg/mL

COc1ccc(/N=C2\CC(C)(C)CC3=C2SCC(C(=O)O)N3)cc1OC (stereo not drawn) [MAA-13, 8-((3,4-dimethoyxphenyl)imino)-6,6-dimethyl-3,4,5,6,7,8-hexahydro-2-H-benzol[b][1,4]thiazine-3-carboxylic acid]
MIC [1]: 25 mg/mL
MIC [2]: 25 mg/mL
MIC [3]: > 30 mg/mL
MIC [4]: > 25 mg/mL
MIC [5]: > 30 mg/mL

CC1(C)CC(NCC(=O)O)=C/C(=N/c2ccccc2)C1 [MAA-20, 2-[(5,5-dimethyl-3-phenylimino-cyclohexen-1-yl)amino]acetic acid]
MIC [1]: > 25 mg/mL
MIC [2]: > 25 mg/mL
MIC [3]: > 30 mg/mL
MIC [4]: 15 mg/mL
MIC [5]: > 30 mg/mL

— patent publication US20260041094A1, “Compositions Comprising an Antimicrobial Boosting Agent” (Symrise AG, priority 2022, published 2026)
